How the values were obtained:
Assay in all cases: relative viability (nuclei count vs DMSO), 5 days (fraction); higher = more cells survive
[1] = compound: C1=CC2=NC=CN=C2C=C1/C=C/3\C(=O)NC(=O)S3 + NC(=O)Nc1cc(-c2cccc(F)c2)sc1C(=O)N[C@H]1CCCNC1 [AZD7762] (partner 0.2 µM)
In short: (§1)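 Five library-drug doses in √10 steps were combined with a fixed anchor-drug dose, or a single drug was given alone, by pin tool to lung cancer cell lines in 1536-well plates the day after seeding. Nuclei were stained and counted after 5 days. Relative viability is the nuclei count in treated wells over that in vehicle wells, taken as the median of duplicate plates.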

BGJ398 + Phenformin = compound: CCN1CCN(c2ccc(Nc3cc(N(C)C(=O)Nc4c(Cl)c(OC)cc(OC)c4Cl)ncn3)cc2)CC1 [BGJ398] + N=C(N)NC(=N)NCCc1ccccc1 [Phenformin] (partner 250 µM)
In short: as §1

[2] = compound: C1=CC2=NC=CN=C2C=C1/C=C/3\C(=O)NC(=O)S3 + Cc1cc(Nc2cc(N3CCN(C)CC3)nc(Sc3ccc(NC(=O)C4CC4)cc3)n2)n[nH]1 [Tozasertib] (partner 0.1 µM)
In short: as §1

[3] = compound: C1=CC2=NC=CN=C2C=C1/C=C/3\C(=O)NC(=O)S3 + Nc1nc2[nH]cc(CCc3ccc(C(=O)N[C@@H](CCC(=O)O)C(=O)O)cc3)c2c(=O)[nH]1 [Pemetrexed] (partner 0.2 µM)
In short: as §1

Cell Line	relative viability ([1]; first compound 0.02 µM)	relative viability ([1]; first compound 0.06325 µM)	relative viability ([1]; first compound 0.2 µM)	relative viability ([1]; first compound 0.6325 µM)	relative viability ([1]; first compound 2 µM)	relative viability (BGJ398 + Phenformin; first compound 0.01 µM)	relative viability (BGJ398 + Phenformin; first compound 0.1 µM)	relative viability (BGJ398 + Phenformin; first compound 0.3162 µM)	relative viability (BGJ398 + Phenformin; first compound 1 µM)	relative viability ([2]; first compound 0.02 µM)	relative viability ([2]; first compound 0.06325 µM)	relative viability ([2]; first compound 0.2 µM)	relative viability ([2]; first compound 0.6325 µM)	relative viability ([2]; first compound 2 µM)	relative viability ([3]; first compound 0.02 µM)	relative viability ([3]; first compound 0.06325 µM)	relative viability ([3]; first compound 0.2 µM)	relative viability ([3]; first compound 0.6325 µM)	relative viability ([3]; first compound 2 µM)	relative viability (BGJ398 + Phenformin; first compound 0.03162 µM)
LOU-NH91	0.74	0.755	0.797	0.733	0.55	0.676	0.712	0.455	0.474	0.619	0.739	0.634	0.63	0.588	0.376	0.326	0.391	0.399	0.407	
LU99A	0.392	0.352	0.369	0.36	0.223	0.937	0.925	0.765	0.765	0.264	0.284	0.238	0.308	0.251	0.167	0.131	0.165	0.176	0.166	0.934
LXF-289	1.06	0.975	1.1	0.986	1.18	0.536	0.542	0.473	0.502	0.186	0.147	0.185	0.185	0.168	0.841	0.823	0.789	0.908	0.899	0.509
NCI-H23	0.227	0.242	0.227	0.182	0.21	0.688	0.811	0.761	0.756	0.337	0.314	0.363	0.401	0.329	0.605	0.79	0.636	0.6	0.578	0.904
NCI-H322M	0.559	0.598	0.607	0.51	0.498	0.791	0.774	0.696	0.845	0.523	0.466	0.482	0.461	0.425	0.622	0.631	0.646	0.618	0.506	0.663
NCI-H358	0.556	0.406	0.621	0.473	0.204	0.29	0.395	0.317	0.462	0.1	0.11	0.0984	0.127	0.0886	0.166	0.18	0.177	0.186	0.181	0.296
NCI-H441	1.07	1.18	1.3	1	1.1	0.793	0.848	0.879	1.01	0.661	0.828	0.743	0.62	0.366	0.25	0.276	0.307	0.229	0.253	0.642
NCI-H460	0.581	0.438	0.576	0.621	0.456	0.491	0.622	0.472	0.465	0.411	0.262	0.441	0.392	0.395	0.0621	0.0629	0.071	0.058	0.0661	0.565
NCI-H522	0.811	0.919	1.07	0.772	0.86	0.585	0.692	0.593	0.603	0.64	0.504	0.641	0.542	0.549	1	0.871	1.12	0.925	0.747	0.599
NCI-H596	1.15	1.14	1.19	0.907	0.956	0.597	0.842	0.722	0.66	0.934	0.951	1.1	0.733	0.902	0.498	0.541	0.543	0.533	0.483	0.724
NCI-H647	0.714	0.403	0.572	0.425	0.382	0.454	0.498	0.455	0.411	0.398	0.258	0.423	0.268	0.357	0.162	0.19	0.168	0.178	0.182	0.514
NCI-H650	0.866	1.06	1.17	0.959	0.69	0.419	0.512	0.458	0.391	0.777	0.725	0.705	0.749	0.55	1.03	0.996	1.02	0.864	0.659	0.442
NCI-H838	0.915	0.915	0.914	0.861	0.685	0.446	0.612	0.437	0.305	0.299	0.271	0.221	0.238	0.242	0.247	0.272	0.25	0.238	0.197	0.549
NCI-H1355	0.789	0.67	0.749	0.691	0.544	0.44	0.454	0.464	0.423	0.515	0.427	0.556	0.568	0.468	0.944	1.07	1.1	1	0.939	0.465
NCI-H1395	0.392	0.393	0.424	0.372	0.411	0.436	0.368	0.393	0.373	0.725	0.794	0.777	0.729	0.809	0.965	0.779	0.975	0.867	0.732	0.433
NCI-H1437	1.18	1.11	1.09	1.09	0.609	0.265	0.314	0.268	0.281	0.404	0.388	0.388	0.418	0.323	0.345	0.291	0.293	0.289	0.265	0.34

Source: the supplement of paper PMC10307832
